Like-named read-outs stand apart in the source and are kept apart here.
Tests used:
[1] = Human liver microsome stability; type: in vitro ADME; details: human liver microsomes, pH 7.4
A549 = experiment: Cell proliferation-inhibiting activity (ATP in viable cells, CellTiter-Glo), A549; type: cell-based, human; details: A549, 96 h, read-out: A549 IC50
BRAF = biological target: T1, BRAF (Homo sapiens, UniProt P15056); experiment: BRAF-inhibiting activity, time-resolved fluorescence-fluorescence resonance energy transfer assay; type: biochemical
T1 construct: purchased Eurofins Genomics KK; (BRAF); Thermo Fisher Scientific Inc. (MEK1)
Experimental: The BRAF-inhibiting activity of the compounds listed in Table 3 below was evaluated by the time-resolved fluorescence-fluorescence resonance energy transfer assay as described below.

NCI-H2122 = experiment: Cell proliferation-inhibiting activity (ATP in viable cells, CellTiter-Glo), NCI-H2122; type: cell-based, human; details: NCI-H2122, 96 h, read-out: NCI-H2122 IC50
MEK1 = biological target: T2, MEK1 (Homo sapiens, UniProt Q02750); experiment: MEK1-inhibiting activity, fluorescent polarization method (CRAF/MEK1/ERK2 cascade, IMAP); type: biochemical; details: Table 3; read-out: MEK1 IC50
T2 construct: purchased Thermo Fisher Scientific Inc. (MEK1, CRAF); Carna Biosciences, Inc. (ERK2)
Experimental: The MEK1-inhibiting activity of the compounds listed in Table 3 below were evaluated by the fluorescent polarization method as described below.

[2] = human lung cancer cells, 4 days

T1 sequence (P15056 417-766 limits assumed): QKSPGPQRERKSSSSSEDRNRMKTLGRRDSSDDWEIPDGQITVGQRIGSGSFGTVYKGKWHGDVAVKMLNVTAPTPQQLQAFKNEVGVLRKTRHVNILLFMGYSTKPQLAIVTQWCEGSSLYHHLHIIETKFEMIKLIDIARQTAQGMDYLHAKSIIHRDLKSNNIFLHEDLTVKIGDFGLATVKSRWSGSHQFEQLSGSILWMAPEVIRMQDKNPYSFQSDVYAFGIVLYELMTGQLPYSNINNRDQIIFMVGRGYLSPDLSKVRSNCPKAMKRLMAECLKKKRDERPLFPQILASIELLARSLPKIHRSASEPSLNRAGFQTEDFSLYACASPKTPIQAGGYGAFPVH
T2 sequence (Q02750 whole entry): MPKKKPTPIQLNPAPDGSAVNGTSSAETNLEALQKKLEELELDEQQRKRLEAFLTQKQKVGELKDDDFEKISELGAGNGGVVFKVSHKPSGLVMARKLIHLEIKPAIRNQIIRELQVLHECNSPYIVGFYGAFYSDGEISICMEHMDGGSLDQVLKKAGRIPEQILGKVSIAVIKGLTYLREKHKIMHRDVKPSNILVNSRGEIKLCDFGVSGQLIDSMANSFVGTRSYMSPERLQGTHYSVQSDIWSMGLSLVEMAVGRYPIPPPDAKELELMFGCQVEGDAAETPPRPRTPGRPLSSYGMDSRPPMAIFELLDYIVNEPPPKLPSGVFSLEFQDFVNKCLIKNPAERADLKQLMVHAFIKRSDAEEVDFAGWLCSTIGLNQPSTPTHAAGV

SMILES | microsomal CLint at 0.99 µM [1] [µL/min/mg] | IC50 (A549; [2]) [nM] | IC50 (BRAF; read-out: BRAF IC50; Table 3) [nM] | IC50 (NCI-H2122; [2]) [nM] | IC50 (MEK1) [nM] | IC50 (A549; Homo sapiens) [nM] | IC50 (BRAF; Table 3; read-out: BRAF IC50) [nM] | IC50 (NCI-H2122; Homo sapiens) [nM]
NC(=O)c1cc(Cc2cccc(NS(=O)(=O)NC[C@H]3CCCO3)c2F)c(F)c(F)c1Nc1ccc(I)cc1F [Compound D-3, 3,4-Difluoro-2-(2-fluoro-4-iodoanilino)-5-[[2-fluoro-3-[[(2R)-oxolan-2-yl]methylsulfamoylamino]phenyl]methyl]benzamide] | 68 | 26 | 1 | 12 | 130 | – | – | –
CNS(=O)(=O)Nc1nccc(Cn2cc(C(N)=O)c(Nc3ccc(SC)cc3F)c(F)c2=O)c1F [Compound N-3, 5-Fluoro-1-[[3-fluoro-2-(methylsulfamoylamino)pyridin-4-yl]methyl]-4-(2-fluoro-4-methylsulfanylanilino)-6-oxopyridine-3-carboxamide] | 19 | – | – | – | 4 | 475 | 5 | 311
NC(=O)c1cc(Cc2ccnc(NS(=O)(=O)NCCO)c2F)c(F)c(F)c1Nc1ccc(I)cc1F [Compound B-9, 3,4-Difluoro-5-[[3-fluoro-2-(2-hydroxyethylsulfamoylamino)pyridin-4-yl]methyl]-2-(2-fluoro-4-iodoanilino)benzamide] | 11 | 10 | 4 | 7 | 2 | – | – | –
CNS(=O)(=O)Nc1cccc(Cc2cc(C(N)=O)c(Nc3ccc(I)cc3F)c(F)c2F)c1 [Compound F-1, 3,4-Difluoro-2-(2-fluoro-4-iodoanilino)-5-[[3-(methylsulfamoylamino)phenyl]methyl]benzamide] | 10 | 7 | 5 | 3 | 246 | – | – | –
CC1(NS(=O)(=O)Nc2nccc(Cc3cc(C(N)=O)c(Nc4ccc(I)cc4F)c(F)c3F)c2F)CC1 [Compound A-23, 3,4-Difluoro-2-(2-fluoro-4-iodoanilino)-5-[[3-fluoro-2-[(1-methylcyclopropyl)sulfamoylamino]pyridin-4-yl]methyl]benzamide] | < 1 | 5 | 5 | 1 | 35 | – | – | –
CNS(=O)(=O)Nc1nccc(Cc2cc(C(=O)NOC(C)C)c(Nc3ccc(I)cc3F)c(F)c2F)c1F [Compound A-10, 3,4-Difluoro-2-(2-fluoro-4-iodoanilino)-5-[[3-fluoro-2-(methylsulfamoylamino)pyridin-4-yl]methyl]-N-propan-2-yloxybenzamide] | 89 | 0.1 | 7 | 0.2 | 5 | – | – | –
NC(=O)c1cc(Cc2ccnc(NS(=O)(=O)NCC3COC3)c2F)c(F)c(F)c1Nc1ccc(I)cc1F [Compound A-21, 3,4-difluoro-2-(2-fluoro-4-iodoanilino)-5-[[3-fluoro-2-(oxetan-3-ylmethylsulfamoylamino)pyridin-4-yl]methyl]benzamide] | 4 | 31 | 4 | 14 | 5 | – | – | –
NC(=O)c1cc(Cc2ccnc(NS(=O)(=O)NC3CCOCC3)c2F)c(F)c(F)c1Nc1ccc(I)cc1F [Compound A-29] | 18 | 28 | – | 6 | 14 | – | 11 | –
NC(=O)c1cc(Cc2ccnc(NS(=O)(=O)NC3CCC3)c2F)c(F)c(F)c1Nc1ccc(I)cc1F [Compound A-32, 5-[[2-(Cyclobutylsulfamoylamino)-3-fluoropyridin-4-yl]methyl]-3,4-dif luoro-2-(2-fluoro-4-iodoanilino)benzamide] | 19 | 7 | 6 | 5 | 25 | – | – | –

From patent publication EP4725941A1, “ARYLAMIDE DERIVATIVE HAVING ANTITUMOR ACTIVITY” (priority 2020, dated 2021)
